Data published in paper PMC6474809 (Cell chemical biology, 2019).

Legend:
[1] = target: T1, H. influenzae NfsB (Haemophilus influenzae, UniProt Q57431); experiment: Michaelis-Menten kinetics by NADPH oxidation; type: biochemical
[2] = target: T1, H. influenzae NfsB
[3] = target: T1, H. influenzae NfsB; experiment: NAD; type: biochemical
[4] = target: T1, H. influenzae NfsB; experiment: inhibition of chloramphenicol reduction by purified enzyme, monitored at […] nm; type: biochemical
[5] = target: T1, H. influenzae NfsB; experiment: TLC of flavin released from heat-denatured purified enzyme; type: binding
[6] = target: T1, H. influenzae NfsB; remark: listed apart in the source
[7] = system: O=C(N[C@H](CO)[C@H](O)c1ccc([N+](=O)[O-])cc1)C(Cl)Cl; experiment: purified protein; type: biochemical, Haemophilus influenzae; conditions: FMN, NADPH

T1 sequence (Q57431 whole entry): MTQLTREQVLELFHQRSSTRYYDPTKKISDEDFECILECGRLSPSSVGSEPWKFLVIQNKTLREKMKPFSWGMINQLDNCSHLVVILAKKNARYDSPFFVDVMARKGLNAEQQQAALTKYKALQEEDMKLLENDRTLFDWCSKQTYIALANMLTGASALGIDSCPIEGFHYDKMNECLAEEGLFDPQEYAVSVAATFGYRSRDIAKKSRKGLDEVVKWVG

## O=[N+]([O-])c1cccc(O)c1 [3-nitrophenol]
[1]
  Michaelis-Menten kinetics by NADPH oxidation (kcat/KM): 61800 M⁻¹ s⁻¹

## O=[N+]([O-])c1ccc(O)cc1 [4-nitrophenol]
[2]
  enzyme turnover monitored at 450 nm; kcat/KM not determined: All three of these compounds also acted as substrates, with menadione showing relatively high activity and 4-nitrophenol showing relatively low

## NC(=O)C1=CN([C@@H]2O[C@H](COP(=O)(O)OP(=O)(O)OC[C@H]3O[C@@H](n4cnc5c(N)ncnc54)[C@H](OP(=O)(O)O)[C@@H]3O)[C@@H](O)[C@H]2O)C=CC1 [NADPH]
[3]
  NAD(P)H oxidation at 340 nm with purified enzyme: requires NADPH as a cofactor and does not utilize NADH

## O=c1oc2ccccc2c(O)c1Cc1c(O)c2ccccc2oc1=O [dicoumarol]
[4]
  IC50: 120 µM

## Cc1cc2nc3c(=O)[nH]c(=O)nc-3n(C[C@H](O)[C@H](O)[C@H](O)COP(=O)(O)O)c2cc1C [flavin mononucleotide]
[5]
  TLC of flavin released from heat-denatured purified enzyme: tightly binds a flavin cofactor, most likely flavin mononucleotide (FMN)

## CC1=CC(=O)c2ccccc2C1=O [menadione]
[1]
  Michaelis-Menten kinetics by NADPH oxidation (kcat/KM): 79340 M⁻¹ s⁻¹

## O=C1CN(/N=C/c2ccc([N+](=O)[O-])o2)C(=O)N1 [nitrofurantoin]
[6]
  Michaelis-Menten kinetics at 420 nm (kcat/KM): 242890 M⁻¹ s⁻¹

## H. influenzae NfsB (Haemophilus influenzae Rd KW20)
[7]
  Km: 500 µM
